The subject of data set [1] is SARS-CoV-2 (USA_WA1/2020). The data set can be described thus: microbe, parasite or virus in culture. It counts as cell-based. The following applies: for pEC50: read-out: CPE EC50.
Data set [2] concerns Vero E6 cells. The following applies: Vero E6 cells without virus; for CC50: read-out: Cytotox CC50.
Setting [3] is: SARS-CoV-2 CPE assay, Vero E6 cells, confirmed anti-SARS-CoV-2 compounds.
Where [4] appears, read: SARS-CoV-2 CPE assay, Vero E6 cells, efficacy.
[5] abbreviates: […], DMSO 0%, no-virus control 100%, hit confirmation.
Setting [6] is: SARS-CoV-2 CPE assay, Vero E6 cells.

pEC50: −log10 of the molar value. Read-outs that look alike come from different tables or passages of the source. Some results are limits rather than exact numbers.

As to `CCOc1ccc(-c2nc(-c3cccc4c3CCC4NCCO)no2)cc1OCC.Cl` (stereo not shown) [CYM 5442 hydrochloride], the pEC50 in data set [1] (setting [3]) is 4.95. Further, the “CPE % Efficacy” value in data set [1] (setting [4]) is 134.3%. For the same molecule, the “% Cytotox” value in data set [2] (cytotoxicity counter-assay) is given as 0.0%.
With `Cc1cccc(Nc2nc(N[C@@H]3CCCC[C@@H]3N)ncc2C(N)=O)c1` [PRT-060318], the pEC50 in data set [1] (setting [3]) was 4.95. In data set [1] (setting [4]), the “CPE % Efficacy” value was 56.9%. In addition, in data set [2] (cytotoxicity counter-assay), the “% Cytotox” value is on record as 45.2% and the cytotoxic concentration (CC50) worked out at 12.6 µM.
As for `Cl.Oc1ccc2c3c1O[C@H]1c4[nH]c5ccc(N=C=S)cc5c4C[C@@]4(O)[C@@H](C2)N(CC2CC2)CC[C@]314` [Naltrindole isothiocyanate hydrochloride, reference compound], the CPE % Efficacy in data set [1] (setting [5]) came out at 114.7%. Also, in data set [1], the pEC50 was 5.00. Further, the “% Cytotox” value in data set [2] (72 h) is recorded as below 30%.
Turning to `O=C(/C=C/c1ccc(Cl)cc1)N1CCC2(CC1)CN(Cc1ccc(Cl)c(Cl)c1)C(=O)O2` [GSK-682753A], in data set [1] (setting [6]), the “CPE % Efficacy” value is 67.7% and the pEC50 is 4.95. In data set [2] (cytotoxicity counter-assay), the “% Cytotox” value was 38.6% and the CC50 was 12.6 µM.
As to `CCC(C)C(=O)OC12C(OC(C)=O)C(C)C3(O)C(C=C(CO)CC4(O)C(=O)C(C)=CC43)C1C2(C)C` (stereo not shown) [NCGC00380715], the pEC50 in data set [1] (setting [3]) is 6.01. Also, the “CPE % Efficacy” value in data set [1] (setting [4]) was found to be 45.0%. For the same molecule, the “% Cytotox” value in data set [2] (cytotoxicity counter-assay) came to 0.0%.
Turning to `CC(CN(C)C)CN1c2ccccc2Sc2ccccc21.CC(CN(C)C)CN1c2ccccc2Sc2ccccc21.O=C(O)C(O)C(O)C(=O)O` (stereo not shown) [Trimeprazine tartrate], in data set [1] (setting [6]), the “CPE % Efficacy” value is 49.5% and the negative logarithm of the EC50 (pEC50) was 4.90. Moreover, the “% Cytotox” value in data set [2] (cytotoxicity counter-assay) turned out to be 0.0%.
Consider `CCN(CC)CCCCNc1nc2cc(Cl)c(Cl)cc2nc1-c1ccc(-c2cccs2)s1` [PD-0220245], for which, in data set [1] (setting [3]), the pEC50 was 5.45. In addition, the “CPE % Efficacy” value in data set [1] (setting [4]) amounted to 35.5%. Also, in data set [2] (cytotoxicity counter-assay), the “% Cytotox” value turned out to be 107.5% and the CC50 worked out at 11.2 µM.
Turning to `Cn1nnnc1Sc1ncnc2scc(-c3cccc(S(C)(=O)=O)c3)c12` [NCGC00182390], the pEC50 in data set [1] (setting [3]) was 5.35. Moreover, the “CPE % Efficacy” value in data set [1] (setting [4]) came out at 57.8%. In data set [2] (cytotoxicity counter-assay), the “% Cytotox” value is on record as 63.9% and the CC50 was found to be 8.91 µM.
As to `O=C(CCC1CCN(Cc2ccccc2)CC1)c1ccc2c(c1)NCCCC2.O=C(O)/C=C/C(=O)O` [Zanapezil fumerate], the pEC50 in data set [1] (setting [3]) is 4.95. Further, in data set [1] (setting [4]), the “CPE % Efficacy” value stood at 63.3%. In addition, the “% Cytotox” value in data set [2] (cytotoxicity counter-assay) stood at 0.0%.
Regarding `Cn1cc(-c2ccncc2)c(-c2ccc(OCc3ccc4ccccc4n3)cc2)n1` [MP-10], in data set [1] (setting [3]), the pEC50 is 5.35. Moreover, the “CPE % Efficacy” value in data set [1] (setting [4]) was 31.1%. For the same molecule, in data set [2] (cytotoxicity counter-assay), the “% Cytotox” value is on record as 85.1%.
Consider `C[C@@H]1O[C@@H](O[C@@H]2[C@@H](O)[C@H](O[C@@H]3[C@@H](O)[C@@H](O)[C@H](O[C@H]4[C@H](OC(=O)[C@]56CCC(C)(C)C[C@H]5C5=CCC7[C@@]8(C)C[C@H](O)[C@H](O[C@@H]9O[C@@H](C)[C@H](O)[C@@H](O)[C@H]9O)[C@@](C)(CO)C8CC[C@@]7(C)[C@]5(C)C[C@H]6O)O[C@H](C)[C@H](O)[C@@H]4O)O[C@H]3C)OC[C@H]2O)[C@H](O)[C@H](O)[C@H]1O` (stereo partly shown) [NCGC00385241], for which, in data set [1] (setting [3]), the pEC50 is 6.07. The “CPE % Efficacy” value in data set [1] (setting [4]) came out at 123.9%. In addition, in data set [2] (cytotoxicity counter-assay), the “% Cytotox” value amounted to 98.7% and the CC50 stood at 1.91 µM.
For `O=C(NCCCN1CCN(c2ccccc2F)CC1)c1ccc2nc(Cc3ccccc3)oc2c1` [NCGC00133175], in data set [1] (setting [6]), the “CPE % Efficacy” value is 95.1% and the pEC50 was 4.85. Moreover, in data set [2] (cytotoxicity counter-assay), the “% Cytotox” value was 25.5% and the CC50 is 15.8 µM.
As to `COc1cc(-n2cnc3cc(-c4ccc(Cl)cc4)sc3c2=O)ccc1OCCN1CCCC1` [GW 803430, reference compound], the CPE % Efficacy in data set [1] (setting [5]) was found to be 93.3%. Besides, in data set [1], the pEC50 is 5.46. For the same molecule, in data set [2] (72 h), the “% Cytotox” value was below 30%.
As for `Cl.Cl.Clc1ccccc1CNCC1CCC(CNCc2ccccc2Cl)CC1` (stereo not shown) [AY 9944 dihydrochloride], in data set [1] (setting [3]), the pEC50 was 5.50. Moreover, in data set [1] (setting [4]), the “CPE % Efficacy” value is listed as 41.0%. In data set [2] (cytotoxicity counter-assay), the “% Cytotox” value was determined as 48.2% and the CC50 was 12.6 µM.
For the molecule `COc1ccc2c(c1)CN(C(=O)CCN1CCC(Cc3ccccc3)CC1)CCS2` [JTV519 Hemifumarate, reference compound], the CPE % Efficacy in data set [1] (setting [5]) is on record as 85.7%. For the same molecule, the negative logarithm of the EC50 (pEC50) in data set [1] is 5.26. Also, the “% Cytotox” value in data set [2] (72 h) is below 30%.
As for `O=c1[nH]c2ccccc2n1C1CCN(Cc2ccc(-c3nc4cc5nc[nH]c5cc4nc3-c3ccccc3)cc2)CC1` [Akt-I-1,2], in data set [1] (setting [6]), the “CPE % Efficacy” value stood at 91.3% and the pEC50 was 4.95. For the same molecule, in data set [2] (cytotoxicity counter-assay), the “% Cytotox” value is listed as 34.2% and the CC50 turned out to be 12.6 µM.
In the same order, the values of `CCc1ccccc1OC[C@@H](O)CN[C@H]1CCCc2ccccc21.Cl` [SR 59230A hydrochloride] are 108.4%, 4.95, 13.9% and 17.8 µM.
In the case of `CC/C(=C(/CC)c1ccc(O)c(CN(CC)CC)c1)c1ccc(O)c(CN(CC)CC)c1` [NSC 33994, reference compound], the CPE % Efficacy in data set [1] (setting [5]) was 107.6%. In addition, the pEC50 in data set [1] is 5.05. The “% Cytotox” value in data set [2] (72 h) is listed as below 30%.
Consider `CC(C)(C)c1ccc(C(=O)Nc2cc(Cl)c(Br)cc2C(=O)O)cc1` [NCGC00386831], for which the pEC50 in data set [1] (setting [3]) is 4.95. For the same molecule, the “CPE % Efficacy” value in data set [1] (setting [4]) came to 32.0%. In data set [2] (cytotoxicity counter-assay), the “% Cytotox” value is reported as 78.8% and the CC50 is 10 µM.
Molecule `CN(C)CCC=C1c2ccccc2C(C)(C)c2ccccc21.Cl` [Melitracen hydrochloride, reference compound] showed a CPE % Efficacy in data set [1] (setting [5]) of 97.1%. The pEC50 in data set [1] is 5.00. Moreover, the “% Cytotox” value in data set [2] (72 h) is below 30%.
In the same order, the values of `CC1(C)CN2C(CSC(=NC3CCCCC3)NC3CCCCC3)=CSC2=N1.Cl.Cl` [IT1t dihydrochloride, reference compound] are 96.3%, 5.46 and below 30%.
`Br.O=C(CN1C2=NCCN2c2ccccc21)c1ccc(-c2ccccc2)cc1` [CCT 031374 hydrobromide]: in data set [1] (setting [3]), the pEC50 was 5.10. The “CPE % Efficacy” value in data set [1] (setting [4]) is listed as 63.4%. In data set [2] (cytotoxicity counter-assay), the “% Cytotox” value came out at 33.8% and the CC50 was found to be 12.6 µM.
As for `C/C=C(\C)C(=O)O[C@H]1CC2C(=C1C)[C@H]1OC(=O)[C@](C)(O)[C@]1(O)[C@H](OC(=O)CCC)C[C@@]2(C)OC(C)=O` (stereo partly shown) [NCGC00169033], the pEC50 in data set [1] (setting [3]) was 5.56. Besides, the “CPE % Efficacy” value in data set [1] (setting [4]) was 63.3%. Also, in data set [2] (cytotoxicity counter-assay), the “% Cytotox” value stood at 48.4% and the CC50 was 4.39 µM.
For the molecule `C/C(=N\NC(=S)N1CCC1)c1ccccn1` [NSC-319726], in data set [1] (setting [3]), the pEC50 is 5.95. The “CPE % Efficacy” value in data set [1] (setting [4]) is given as 58.3%. For the same molecule, in data set [2] (cytotoxicity counter-assay), the “% Cytotox” value was 52.8% and the half-maximal cytotoxic concentration (CC50) is 0.35 µM.
Take `Cc1cnc(NC(=O)c2cc(S(=O)(=O)N(C)C)ccc2N2CCCC2)s1` [ML414, reference compound]: in data set [1], the pEC50 was 5.49. Further, the “% Cytotox” value in data set [2] (72 h) is listed as below 30%.
With `CC(C)CCC[C@@H](C)[C@H]1CC[C@H]2[C@@H]3CC=C4C[C@@H](OC(=O)NCCN(C)C)CC[C@]4(C)[C@H]3CC[C@]12C.Cl`, the pEC50 in data set [1] (setting [3]) was 4.95. The “CPE % Efficacy” value in data set [1] (setting [4]) came out at 40.5%. In data set [2] (cytotoxicity counter-assay), the “% Cytotox” value is 37.0% and the CC50 stood at 10 µM.

As usually defined, the pEC50 is the negative decadic logarithm of the EC50, by convention in mol/L. In general, CC50 refers to the concentration giving 50% cytotoxicity.

Source of the values: PMC7942396, “Drug Repurposing Screen for Compounds Inhibiting the Cytopathic Effect of SARS-CoV-2” (Frontiers in Pharmacology, 2021).
